Laboratory results from PubChem BioAssay (NCI).
Values joined by “and” are separate entries in the source; they are usually repeats but may differ in a detail not shown here. Identical values can stand only once.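 A five-concentration, 48-hour dose response in 96-well plates underlies each endpoint, interpolated linearly between surrounding concentrations. GI50 = concentration required for 50% inhibition of growth. TGI denotes the concentration required for complete inhibition of growth.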

Test system: T-47D breast
Assay: NCI-60 cell line screen, 48 h

Row | SMILES | GI50 | TGI
1 | COC(=O)[C@H](C)NC(=O)NC(=O)NC(=O)CI | 7.46 µM | 32.2 µM
2 | COc1cc2c(c(OC)c1OC)-c1ccc(OC)c(=O)cc1[C@@H](NC(=O)c1ccccc1)CC2 | > 30 µM | > 100 µM
3 | CN1C/C=C\CCOc2cccc(c2)-c2ccnc(n2)Nc2cccc(c2)C1 | 0.0413 µM | 0.334 µM
4 | C[C@@]12CC=C3c4nc(Nc5cccc(O)c5)sc4CC[C@]3(C)[C@H]1CC[C@]1(C)C(=O)CC[C@@H]21 | 2.61 µM | 8.3 µM
5 | CN1C(=O)c2cccc3cc([N+](=O)[O-])cc(c23)C1=O |  | > 10 µM
6 | Oc1ccccc1C(Sc1nc2ccccc2s1)Sc1nc2ccccc2s1 |  | 73.5 µM
7 | COC1=C(C)C(=O)c2c(c(COC(N)=O)c3n2CC2C3N2C)C1=O (stereo not drawn) |  | 0.201 µM

Test system: TK-10 renal
Assay: NCI-60 cell line screen, 48 h

Row | SMILES | GI50 | TGI
8 | O=C(N/N=C/c1ccc(Cl)cc1)c1ccc(C(F)(F)F)nc1Nc1cccc(C(F)(F)F)c1 | 2.85 µM | 16.8 µM
9 | COc1cc2ncnc(Nc3ccc(C)c(O)c3)c2cc1OC | 3.62 µM | 12 µM
10 | COC(=O)C1=CNC=C(C(=O)OC)C1C1=CC(=O)C(C)=CC1=O | 6.2 µM | 15.5 µM
11 | C=C1C(=O)O[C@H]2[C@H]1CC/C(COC(=O)C(=O)c1cn(Cc3ccccc3)c3ccccc13)=C\CC[C@@]1(C)O[C@@H]21 | 2.33 µM | 5.47 µM
12 | Cc1cc(S(=O)(=O)Nc2nnc(-c3ccccc3)c(-c3ccccc3)n2)c(SCC(N)=O)cc1Cl | > 100 µM | > 100 µM
13 | COC(C(O)CO)C(O)C(O)C(=O)NNc1ccccc1 (stereo not drawn) |  | > 100 µM
14 | NS(=O)(=O)c1ccc(NC2(C(=O)O)CCCC2)cc1 |  | > 100 µM
15 | O=C(O)C1OC(n2cc(F)c(=O)[nH]c2=O)CC1O (stereo not drawn) |  | > 100 µM
16 | N=C1C(c2nc3ccccc3s2)=C(O)CN1c1cc(C(F)(F)F)ccc1Cl | 52.1 µM | > 100 µM
17 | CC(=O)CSCc1ccccn1 |  | > 100 µM
18 | COc1ccccc1CNCCCN1C(=O)c2ccc3c4c(ccc(c24)C1=O)C(=O)N(CCCOCCCCOCCCN)C3=O | 1.97 µM | 3.93 µM
19 | CCOC(=O)[C@@H](N)CCC(=O)N[C@@H](CSCc1ccccc1)C(=O)N[C@@H](C(=O)OCC)c1ccccc1 | 16.6 µM | 32.7 µM
20 | COc1ccc(Nc2c3ccccc3nc3occc23)cc1 | 1.61 µM | 20.6 µM
21 | COc1cc(/C=C/c2cc(/C=C/c3ccc(O)c(OC)c3)n(C(=O)Nc3ccc(F)c(Cl)c3)n2)ccc1O | 0.58 µM | 3.56 µM
22 | CCCCCCCC/C=C/CCCCCCCC(=O)OC[C@H]1O[C@@H](n2ccc(N)nc2=O)C(F)(F)[C@@H]1O | 2.38 µM | > 100 µM
23 | NS(=O)(=O)c1ccc(N=Nc2c(O)[nH]c3ccc(-c4cnco4)cc23)cc1 | > 25 µM | > 25 µM
24 | COc1cc2c3c(n(CCCNC(=O)OCC4c5ccccc5-c5ccccc54)c(=O)c2cc1OC)-c1cc2c(cc1/C3=C\CCNC(=O)OCC1c3ccccc3-c3ccccc31)OCO2 | > 31.7 µM | > 50 µM
25 | N#C/C(=C1C=C(Br)/C(=N\O)C=C\1Cl)c1cccc2ccccc12 |  | 24.1 µM
26 | COc1cc2nc3cc([N+](=O)[O-])ccc3c(NCCCNCCO)c2cc1OC | 0.276 µM | 0.923 µM
27 | COC(=O)[C@@H](C)CNS(=O)(=O)N(c1cc(C(F)(F)F)cc(C(F)(F)F)c1)C1CCN(Cc2ccc(F)cc2)CC1 | 17.2 µM | 32.7 µM
28 | C=C1C(=O)O[C@@H]2/C=C(\C)CC/C=C(/COC(C)=O)C[C@@H](OC(C)=O)[C@@H]12 |  | 23.2 µM
29 | COC(=O)[C@H](C)NC(=O)NC(=O)NC(=O)CI | 16.9 µM | 30.6 µM
30 | COc1cc2c(c(OC)c1OC)-c1ccc(OC)c(=O)cc1[C@@H](NC(=O)c1ccccc1)CC2 | 0.0806 µM | 30 µM and > 100 µM
31 | CN1C/C=C\CCOc2cccc(c2)-c2ccnc(n2)Nc2cccc(c2)C1 | 0.0762 µM | 0.88 µM
32 | C[C@@]12CC=C3c4nc(Nc5cccc(O)c5)sc4CC[C@]3(C)[C@H]1CC[C@]1(C)C(=O)CC[C@@H]21 | 2.18 µM | 6.44 µM
33 | CN1C(=O)c2cccc3cc([N+](=O)[O-])cc(c23)C1=O |  | > 10 µM
34 | Oc1ccccc1C(Sc1nc2ccccc2s1)Sc1nc2ccccc2s1 |  | > 100 µM
35 | COC1=C(C)C(=O)c2c(c(COC(N)=O)c3n2CC2C3N2C)C1=O (stereo not drawn) |  | 0.0542 µM
